# Reference: US20230022859A1, “TREATMENT OF CANCER WITH ANTI-OX40 ANTIBODIES AND MULTI-KINASE INHIBITORS” (BEIGENE, LTD., priority 2019, published 2023)
# Where a chain is given by its changes, count along the chain named. In names and notes the source's numbering stands.
# T1: interaction between OX40 and OX40 ligand (Mus musculus, UniProt P47741)
# T1 sequence (P47741 20-272): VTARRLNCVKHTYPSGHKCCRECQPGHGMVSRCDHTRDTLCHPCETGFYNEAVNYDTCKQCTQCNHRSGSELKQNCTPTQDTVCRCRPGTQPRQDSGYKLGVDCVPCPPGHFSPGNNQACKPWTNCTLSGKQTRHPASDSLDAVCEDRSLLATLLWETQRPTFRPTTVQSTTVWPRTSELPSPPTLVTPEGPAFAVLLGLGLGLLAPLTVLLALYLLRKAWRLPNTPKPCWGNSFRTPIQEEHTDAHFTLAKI
# T1 sequence (P43488 1-198 partner): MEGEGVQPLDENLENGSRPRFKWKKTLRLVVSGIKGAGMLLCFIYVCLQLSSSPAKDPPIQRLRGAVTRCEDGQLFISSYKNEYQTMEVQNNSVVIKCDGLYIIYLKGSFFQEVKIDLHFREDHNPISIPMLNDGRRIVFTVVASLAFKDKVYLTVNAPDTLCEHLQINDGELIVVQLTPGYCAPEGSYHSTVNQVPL
# T2: full-length human OX40 expressed on HuT78/OX40 cells (human, UniProt P43489 29-277)
# T2 sequence: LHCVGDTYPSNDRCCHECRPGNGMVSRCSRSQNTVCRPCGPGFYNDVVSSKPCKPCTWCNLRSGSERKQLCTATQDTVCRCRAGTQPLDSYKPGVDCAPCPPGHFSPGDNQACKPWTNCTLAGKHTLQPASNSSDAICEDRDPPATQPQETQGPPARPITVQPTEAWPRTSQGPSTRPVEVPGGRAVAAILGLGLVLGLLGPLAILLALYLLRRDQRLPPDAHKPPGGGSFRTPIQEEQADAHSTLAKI
# T3: recombinant OX40 protein with a His tag (Cat: 10481-H08H, Sino Biological) (UniProt P43489 29-216)
# T3 construct: Bought protein; not shown: His tag
# T3 sequence (looked up): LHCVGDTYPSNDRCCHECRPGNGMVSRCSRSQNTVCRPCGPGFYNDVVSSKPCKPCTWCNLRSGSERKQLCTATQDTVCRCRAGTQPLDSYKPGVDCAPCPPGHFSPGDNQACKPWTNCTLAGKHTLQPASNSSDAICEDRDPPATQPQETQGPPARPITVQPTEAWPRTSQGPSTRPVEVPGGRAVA
# B1: OX86: rat anti-mouse OX40 antibody of WO2016/057667 engineered with mouse IgG2a constant regions, VH SEQ ID NO: 32, VL SEQ ID NO: 33 (antibody, V domains shown)
# VH: QVQLKESGPGLVQPSQTLSLTCTVSGFSLTGYNLHWVRQPPGKGLEWMGRMRYDGDTYYNSVLKSRLSISRDTSKNQVFLKMNSLQTDDTAIYYCTRDGRGDSFDYWGQGVMVTVSS
# VL: DIVMTQGALPNPVPSGESASITCRSSQSLVYKDGQTYLNWFLQRPGQSPQLLTYWMSTRASGVSDRFSGSGSGTYFTLKISRVRAEDAGVYYCQQVREYPFTFGSGTKLEIK
# modifications: mouse IgG2a constant regions
# B2: 445-2 variant with K28T in the heavy chain and S24R in the light chain (antibody, V domains shown)
# VH: QVQLVQSGAEVKKPGSSVKVSCKASGYTFTSYIIHWVRQAPGQGLEWMGYINPYNEGTRYAQKFQGRVTLTADKSTSTAYMELSSLRSEDTAVYYCARGYYGSSYAMDYWGQGTTVTVSS
# VL: DIQMTQSPSSLSASVGDRVTITCRASQGISNYLNWYQQKPGKAIKLLIYDASTLYSGVPSRFSGSGSGTDFTLTISSLQPEDFATYYCQQYSKLPYTFGGGTKVEIK
# B3: 445-2 variant with Y27G in the heavy chain and S24R in the light chain (antibody, V domains shown)
# VH: B2 VH with Y27G, T28K
# VL: B2 VL
# What was measured:
# [1] = system: CT26WT cells, a murine colon cancer cell line; experiment: CT26WT syngeneic colon tumor model, OX86 and Compound 1; format: in vivo, BALB/c mice; conditions: OX86 0.08 mg/kg QW i.p.; Compound 1 15 mg/kg QD p.o.
# Protocol: Female BALB/c mice were subcutaneously implanted with 1×10^5 CT26WT cells, a murine colon cancer cell line, in 100 μL PBS in the right flank. After inoculation, the mice were randomized into 4 groups with 20 animals in each group according to the inoculation order. The mice were treated with vehicle (PEG400/0.1N HCl in saline, 40/60) as a negative control.
# As monotherapy, OX86 was administered at 0.08 mg/kg once per week (QW) by intraperitoneal (i.p.) injection
# Compound 1 was administered as a single therapy at 15 mg/kg once per day (QD) by oral gavage (p.o.). OX86 was administered at 0.08 mg/kg once per week (QW) by intraperitoneal (i.p.) injection in combination with Compound 1 at 15 mg/kg once per day (QD) by oral gavage (p.o.). Tumor volume was determined twice weekly in two dimensions using a caliper, and was expressed in mm3 using the formula: V=0.5(a×b2) where a and b are the long and short diameters of the tumor, respectively. Data is presented as mean tumor volume ±standard error of the mean (SEM). Tumor growth inhibition (TGI) is calculated using the following formula: […]
# [2] = system: MC38 cells, a murine colon adenocarcinoma line; experiment: MC38 syngeneic colon adenocarcinoma model, 1A7.gr1 and Compound 1; format: in vivo, C57BL/6 mice
# Protocol: Female C57BL/6 mice were subcutaneously implanted with 2×10^7 MC38 cells, a murine colon adenocarcinoma line; in 100 μL PBS in the right frank. After inoculation, mice were randomized into 4 groups according to tumor volume. Mice were treated with vehicle (PEG400/0.1N HCL in saline, 40/60) as a control. 1A7.gr1 (sequence previously disclosed in US 20150307617) was confirmed to bind to mouse OX40 in house.
# The 1A7.gr1 antibody was administered at 2 mg/kg per week by intraperitoneal injection as a single agent. […] The 1A7.gr1 antibody in combination with Compound 1 was administered at the same dosages and routes of administration as described above. Tumor volumes were determined twice weekly.
# [3] = system: tyrosine kinases, including RET, CBL, CHR4q12, DDR and Trk; conditions: cited from earlier work
# [4] = biological target: T1, interaction between OX40 and OX40 ligand; conditions: cited from earlier work
# [5] = biological target: T2, full-length human OX40 expressed on …; experiment: FACS; cells not named in the sentence (taken as OX40-expressing cells); reference 445-2
# [6] = biological target: T3, recombinant OX40 protein with a His tag …; experiment: Biacore; OX40 protein not given; reference 445-2
# [7] = 1A7.gr1 2 mg/kg QW i.p., Compound 1 15 mg/kg QD p.o.
molecule,measurement,setting,value
COCCNCc1ccc(-c2cc3nccc(Oc4ccc(NC(=O)C5(C(=O)Nc6ccc(F)cc6)CC5)cc4F)c3s2)nc1 [Compound 1],Mean Tumor Volume on Day 24 (mean ± SEM),[1],177.4 ± 28.5 mm^3
same,TGI (%) on Day 24,[1],91%
same,Tumor Free Animal (%) on Day 69 (complete responders),[1],5%
same,Mean Tumor Volume on Day 29 (mean ± SEM),[2]; [7],712.5 mm^3
same,TGI (%) on Day 22,[2]; [7],80%
same,complete response / mice being tumor free on day 22,"[2]; 1A7.gr1 2 mg/kg QW×4, Compound 1 15 mg/kg QD×22",80%
same,inhibition of tyrosine kinases,[3],potent inhibition
B1,Mean Tumor Volume on Day 24 (mean ± SEM),[1],308.5 ± 115.8 mm^3
same,TGI (%) on Day 24,[1],84%
same,Tumor Free Animal (%) on Day 69 (complete responders),[1],50%
same,blocking of OX40-OX40 ligand interaction,[4],does not block the interaction between OX40 and OX40 ligand
B2,fold increase to the EC50 over the original 445-2 antibody,[5],1.7 fold
B3,fold increase to the KD over the original 445-2 antibody,[6],1.7 fold
